Experimental data taken from PubChem BioAssay AID651630 (Sanford-Burnham Center for Chemical Genomics, 2012).
Calls of active or inactive are those of the source.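 How the source made its calls: active means lipid-stain IC50 at or below a set limit, with nuclear-stain toxicity IC50 at least five times higher; inactive means the rest.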

Columns and labels:
TAG = TAG lipid buildup inhibition with viability readout – cell-based, panel, Nile Red and DAPI fluorescence, H9c2, dose response (AID 651630); conditions: H9c2 cells, Nile Red TAG fluorescence, oleic acid;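 further: cells exposed to compound overnight before fixation and staining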
DAPI = assay: as above; conditions: H9c2 cells, DAPI nuclear fluorescence (cytotoxicity counter-readout), oleic acid

Structure (SMILES) | IC50 (TAG; mean of runs) | IC50 (TAG; run 1) | IC50 (TAG; run 2) | IC50 cytotoxicity (DAPI nuclear signal decrease) (DAPI; mean of runs) | IC50 cytotoxicity (DAPI nuclear signal decrease) (DAPI; run 1) | IC50 cytotoxicity (DAPI nuclear signal decrease) (DAPI; run 2)
C[C@@H]1CN([C@@H](C)CO)C(=O)c2cccc(NC(=O)C3CCCCC3)c2O[C@@H]1CN(C)Cc1ccc(Cl)c(Cl)c1 | 11.5 µM | 9.78 µM | 13.3 µM | > 25 µM (inactive) | > 25 µM | > 25 µM
O=C1c2ccccc2C(=O)c2c1cccc2N1CCN(C/C=C/c2ccccc2)CC1 |  | 23.1 µM | > 25 µM | > 25 µM (inactive) | > 25 µM | > 25 µM
O=C(NCCc1c[nH]c2ccccc12)C1CCC(Cn2c(=S)[nH]c3ccccc3c2=O)CC1 (stereo not given) |  | > 25 µM | 22.2 µM | > 25 µM (inactive) | > 25 µM | > 25 µM
CN1CCCC(n2nc(Cc3ccc(Cl)cc3)c3ccccc3c2=O)CC1 (stereo not given) | 18.3 µM (inactive) | 24.2 µM | 12.4 µM | > 25 µM (inactive) | > 25 µM | > 25 µM
COc1ccc(OC)c(NS(=O)(=O)c2ccc(N3CCCC3=O)cc2)c1 | > 25 µM (inactive) | > 25 µM | > 25 µM | > 25 µM (inactive) | > 25 µM | > 25 µM
NC(=O)N/N=C/c1c(Sc2nnnn2-c2ccccc2)nc2ccccn2c1=O | 10.7 µM | 15.3 µM | 6.11 µM | 17.2 µM (inactive) | 15.7 µM | 18.7 µM
CCN(CC)S(=O)(=O)c1ccc(N2CCOCC2)c(NC(=O)c2[nH]c(C)c(C(C)=O)c2C)c1 | 7 µM | 6.05 µM | 7.95 µM | > 25 µM (inactive) | > 25 µM | > 25 µM
COc1ccc(OC)c(C2CC(c3ccccc3)=NN2C(=S)Nc2ccccc2)c1 (stereo not given) | > 25 µM (inactive) | > 25 µM | > 25 µM | > 25 µM (inactive) | > 25 µM | > 25 µM
CCN1CCN(Cc2ccc(NC(=O)c3cc(NC(=O)C(=O)c4c[nH]c5ccccc45)cc(OC)c3)cc2C(F)(F)F)CC1 | 5.76 µM | 5.58 µM | 5.93 µM | 23.4 µM (inactive) | 23.4 µM | 23.4 µM
C=CC[C@@H](CC(=O)N(CCO)Cc1ccccc1)C(=O)N[C@H](COC(=O)[C@@H](CC=C)Cc1ccc(F)cc1)C(C)(C)C | 4.28 µM | 3.51 µM | 5.05 µM |  | > 25 µM | > 25 µM
CCC(=NCCc1c(C)[nH]c2ccc(OC(F)(F)F)cc12)C1=C(O)CC(c2ccccc2)CC1=O (stereo not given) | > 25 µM (inactive) | > 25 µM | > 25 µM | > 25 µM (inactive) | > 25 µM | > 25 µM
Cc1cc(N/N=C\c2ccc(Br)cc2)nc(-n2nc(C)cc2C)n1 | > 25 µM (inactive) | > 25 µM | > 25 µM | > 25 µM (inactive) | > 25 µM | > 25 µM
COC(=O)[C@]1(CC(C)C)N[C@H](c2ccc(-c3ccc(F)cc3)cc2)[C@@H]2C(=O)N(C)C(=O)[C@@H]21 | 14.9 µM | 14.6 µM | 15.1 µM | > 25 µM (inactive) | > 25 µM | > 25 µM
